Assay results: paper PMC12085399, “Quantitative in vitro-to-in vivo extrapolation of human adrenergic and trace amine-associated receptor 1 potencies of pre-workout supplement ingredients using physiologically based kinetic modelling-based reverse dosimetry” (Archives of Toxicology, 2025)

Tests used:
Caco-2 cells = test: in vitro; conditions: for fa (fraction absorbed) / ka (absorption rate constant): scaled from corrected Caco-2 Papp A-B, human; for metabolic breakdown by Caco-2 cells: Caco-2 transport studies, 10 µM
Description: (§1) Caco-2 cells (ATCC, Manassas, VA, USA; passage 30–44) were cultured in DMEM (Gibco, New York, USA) containing 4.5 g/L d-glucose, 4 mM L-glutamine and supplemented with 10% FBS (Gibco, Grand Island, NY, USA), 1% minimal essential medium non-essential amino acids (Gibco, Paisley, UK), 100 units/mL penicillin and 100 µg/mL streptomycin (Gibco, Grand Island, NY, USA). Cells were seeded at a density of 4.0 × 10^4 cells/cm^2 on polyester transwell insert membranes (12 mm insert, 0.4 µm pore size; Corning incorporated, Kennebunk, ME, USA). Cells were maintained in a humidified incubator with 5% CO2 at 37 °C for 21 or 22 days in 0.5 mL and 1.5 mL medium in the apical and basolateral compartments, respectively. The medium was refreshed every two or three days and always one day before the permeability assay.
(§2) On the day of the experiment, cells were washed twice with HBSS without phenol red (pH 7.4; Sigma-Aldrich, Steinheim, Germany) supplemented with 0.35 g/L sodium bicarbonate and 25 mM HEPES and they were equilibrated in this supplemented HBSS for 15 min in a humidified incubator with 5% CO2 at 37 °C. […] These stocks were diluted to a final concentration of 10 µM in pre-warmed supplemented HBSS (final DMSO level = 0.1%). After 15 min, the transepithelial electrical resistance (TEER) was measured with an Epithelial Voltohmmeter (World Precision Instruments, Sarasota, USA). Compound transport was studied in two directions: from the apical to the basolateral compartment (A-B) and from the basolateral to the apical compartment (B-A). For A-B experiments, 450 µL of the compound (10 µM) was added to the apical side and 1200 µL supplemented HBSS was added to the basolateral side. A sample of 50 µL was removed immediately from the apical compartment at time point zero. After 15 and 30 min, samples were taken from the basolateral compartment. Cells were kept in the incubator during the experiment. After 60 min, medium from both compartments was sampled, cells were washed twice with supplemented HBSS and were maintained in the incubator. After 15 min, the TEER was measured again to check for epithelial barrier damage due to compound exposure. After this, cells were lysed in RIPA buffer (Thermo Scientific, Rockford, IL, USA). For B-A experiments, 400 µL of supplemented HBSS was added to the apical side and 1250 µL of the compound (10 µM) was added to the basolateral side. A sample of 50 µL was removed immediately from the basolateral compartment at time point zero. After 15 and 30 min, samples were taken from the apical compartment. After 60 min, samples were taken similarly as in A-B experiments. The sampled medium and cell lysates were stored at −20 °C till the day of the liquid chromatography–mass spectrometry (LC–MS/MS) analysis. All experiments were run in duplicate. The compounds were quantified with LC–MS/MS as described in Sect. "LC–MS/MS analysis".
(§3) Before chemical analysis, cell lysates were two times diluted in ice-cold methanol and centrifuged at 15,000 rpm at 4 °C. The supernatant was then injected into the LC–MS/MS system. Sampled buffer from donor compartments was diluted 40 times in buffer and samples from the receiver compartment were analysed undiluted. Standards were prepared in the same assay buffer to quantify the amount of compound in medium samples. For quantification of compounds in cell lysates, standards were prepared in a mixture of 50% RIPA buffer and 50% methanol.
(§4) All data are presented as mean ± SD.
(§5) For the < Tsi > a value of 3.32 h was used (Grandoni et al. [2019]).

in vitro = conditions: human; for Papp B→A at 60 min, 10 µM / efflux ratio at 60 min, 10 µM: Caco-2, pH 7.4; for recovery at 60 min, 10 µM: after 60 min, mean ± SD
Description: as §1, §2, §3, §4, §5

ADRα1B = test: PBK modelling-based reverse dosimetry of in vitro EC50 to ED50, ADRα1B; conditions: predicted human oral ED50 from in vitro EC50 (Pinckaers et al. [2024]) and modelled Cmax plasma venous
Text: (§6) The in vitro effect concentrations (EC50), for activation of the α1A, α1B, α1D, α2A, α2B, β1 and β2 ADR activation and the activation of TAAR1, were obtained from our previous study (Pinckaers et al. [2024]).

ADRα1D = test: PBK modelling-based reverse dosimetry of in vitro EC50 to ED50, ADRα1D; conditions: predicted human oral ED50 from in vitro EC50 (Pinckaers et al. [2024]) and modelled Cmax plasma venous
Text: as §6

ADRβ2 = test: PBK modelling-based reverse dosimetry of in vitro EC50 to ED50, ADRβ2; conditions: predicted human oral ED50 from in vitro EC50 (Pinckaers et al. [2024]) and modelled Cmax plasma venous
Text: as §6

ADRα2A = test: PBK modelling-based reverse dosimetry of in vitro EC50 to ED50, ADRα2A; conditions: predicted human oral ED50 from in vitro EC50 (Pinckaers et al. [2024]) and modelled Cmax plasma venous
Text: as §6

ADRα1A = test: PBK modelling-based reverse dosimetry of in vitro EC50 to ED50, ADRα1A; conditions: predicted human oral ED50 from in vitro EC50 (Pinckaers et al. [2024]) and modelled Cmax plasma venous
Text: as §6

ADRβ1 = test: PBK modelling-based reverse dosimetry of in vitro EC50 to ED50, ADRβ1; set-up: species or system human; conditions: predicted human oral ED50 from in vitro EC50 (Pinckaers et al. [2024]) and modelled Cmax plasma venous
TAAR1 = test: PBK modelling-based reverse dosimetry of in vitro EC50 to ED50, TAAR1; set-up: species or system human; conditions: predicted human oral ED50 from in vitro EC50 (Pinckaers et al. [2024]) and modelled Cmax plasma venous
Text: as §6

[1] = Caco-2, pH 7.4, Papp A-B corrected, corrected for the difference between Papp A-B of metoprolol in this study and in literature
[2] = Caco-2, pH 7.4, Papp A-B, Caco-2, apical to basolateral, 10 µM, HBSS pH 7.4, mean ± SD, duplicate
[3] = Caco-2, pH 7.4, Recovery (A-B), Caco-2, A-B experiments
[4] = Caco-2, pH 7.4, Recovery (B-A), Caco-2, B-A experiments

| Compound | fa (fraction absorbed) (Caco-2 cells) | ka (absorption rate constant) (Caco-2 cells) [h⁻¹] | Papp B→A at 60 min, 10 µM (in vitro) [×10⁻⁶ cm/s] | efflux ratio at 60 min, 10 µM (in vitro) | Papp A→B at 60 min, 10 µM (in vitro; [1]) [×10⁻⁶ cm/s] | Papp A→B at 60 min, 10 µM (in vitro; [2]) [×10⁻⁶ cm/s] | recovery at 60 min, 10 µM (in vitro; [3]) [%] | recovery at 60 min, 10 µM (in vitro; [4]) [%] | ADRα1B ED50 (ADRα1B) | ADRα1D ED50 (ADRα1D) | ADRβ2 ED50 (ADRβ2) | ADRα2A ED50 (ADRα2A) | ADRα1A ED50 (ADRα1A) | ADRβ1 ED50 (ADRβ1) | TAAR1 ED50 (TAAR1) [mg/kg bw] | metabolic breakdown by Caco-2 cells (Caco-2 cells) |
| --- | --- | --- | --- | --- | --- | --- | --- | --- | --- | --- | --- | --- | --- | --- | --- | --- |
| CN(C)CCc1ccc(O)cc1 [Hordenine, hordenine] | 1.00 | 3.46 | 11.2 ± 0.22 | 0.862 | 47.3 | 13 ± 0.192 | 96.7 ± 1.27 | 107 ± 0.0262 | 1.90 mg/kg bw | 11.5 mg/kg bw | – (compounds with a dash (-) did not activate the receptors in vitro at concentrations ≤ 300 µM) | 234 mg/kg bw | – (compounds with a dash (-) did not activate the receptors in vitro at concentrations ≤ 300 µM) | – (compounds with a dash (-) did not activate the receptors in vitro at concentrations ≤ 300 µM) | 15.9 |  |
| Oc1ccc(CC2NCCc3cc(O)c(O)cc32)cc1 (stereo not shown) [Higenamine, higenamine] | 0.860 | 0.246 | 0.0612 ± 0.00186 | 1 | 0.223 | 0.061 ± 0.0351 | 104 ± 0.35 | 105 ± 1.06 | – (compounds with a dash (-) did not activate the receptors in vitro at concentrations ≤ 300 µM) | – (compounds with a dash (-) did not activate the receptors in vitro at concentrations ≤ 300 µM) | 2.92 mg/kg bw | – (compounds with a dash (-) did not activate the receptors in vitro at concentrations ≤ 300 µM) | – (compounds with a dash (-) did not activate the receptors in vitro at concentrations ≤ 300 µM) | 0.211 mg/kg bw | 6.09 |  |
| CNCC(O)c1ccccc1 (stereo not shown) [Halostachine, halostachine] | 1.00 | 3.46 | 10.3 ± 0.649 | 0.786 | 47.8 | 13.1 ± 0.144 | 84 ± 3.18 | 93.9 ± 0.0289 | 1.32 mg/kg bw | 2.52 mg/kg bw | – (compounds with a dash (-) did not activate the receptors in vitro at concentrations ≤ 300 µM) | – (compounds with a dash (-) did not activate the receptors in vitro at concentrations ≤ 300 µM) | 10.5 mg/kg bw | – (compounds with a dash (-) did not activate the receptors in vitro at concentrations ≤ 300 µM) | 88.9 |  |
| CNCC(O)c1ccc(O)cc1 (stereo not shown) [p-Synephrine, Synephrine] | 0.997 | 0.951 | 0.22 ± 0.0453 |  | 3.47 | 0.951 ± 0.497 | 109 ± 1.48 | 100 ± 4.89 | 0.914 mg/kg bw | 2.35 mg/kg bw | – (compounds with a dash (-) did not activate the receptors in vitro at concentrations ≤ 300 µM) | 139 mg/kg bw | 3.32 mg/kg bw |  | 127 | not observed |
| CN(C)CCc1ccccc1 [Dimethylphenethylamine, N,N-dimethylphenethylamine] | 1.00 | 3.66 | 13.1 ± 0.51 | 0.891 | 53.5 | 14.7 ± 0.244 | 76.7 ± 0.06 | 93.3 ± 4.81 | 4.07 mg/kg bw | 5.60 mg/kg bw | – (compounds with a dash (-) did not activate the receptors in vitro at concentrations ≤ 300 µM) | – (compounds with a dash (-) did not activate the receptors in vitro at concentrations ≤ 300 µM) | – (compounds with a dash (-) did not activate the receptors in vitro at concentrations ≤ 300 µM) | – (compounds with a dash (-) did not activate the receptors in vitro at concentrations ≤ 300 µM) | 14.0 |  |
| NCCc1ccc(O)cc1 [Tyramine, tyramine] | 1.00 | 1.50 | 1.13 ± 0.67 |  | 8.7 | 2.38 ± 1.19 | 114 ± 11.2 | 84 ± 6.25 | – (compounds with a dash (-) did not activate the receptors in vitro at concentrations ≤ 300 µM) | – (compounds with a dash (-) did not activate the receptors in vitro at concentrations ≤ 300 µM) | – (compounds with a dash (-) did not activate the receptors in vitro at concentrations ≤ 300 µM) | – (compounds with a dash (-) did not activate the receptors in vitro at concentrations ≤ 300 µM) | – (compounds with a dash (-) did not activate the receptors in vitro at concentrations ≤ 300 µM) |  | 34.7 | not observed |
